Results taken from ChEMBL document CHEMBL2086297, “Reduced pulmonary surfactant interaction of daptomycin analogs via tryptophan replacement with alternative amino acids” (2012).
≈ marks a conversion by molar mass, not a printed value.

What was measured:
Assay type in all cases: functional
Staphylococcus aureus [1] = assay: Antibacterial activity against methicillin-susceptible Staphylococcus aureus ATCC 29213 grown on calcium supplemented Mueller-Hinton broth by broth microdilution method
Staphylococcus aureus [2] = assay: Antibacterial activity against methicillin-susceptible Staphylococcus aureus ATCC 29213 by broth microdilution method in presence of 1% pulmonary surfactant; settings: ATCC 29213, Pulmonary surfactant
Staphylococcus aureus [3] = assay: Antibacterial activity against methicillin-susceptible Staphylococcus aureus ATCC 29213 by broth microdilution method in presence of 5% pulmonary surfactant; settings: ATCC 29213, Pulmonary surfactant
Staphylococcus aureus [4] = assay: Antibacterial activity against methicillin-susceptible Staphylococcus aureus ATCC 29213 by broth microdilution method in presence of 4% human serum albumin

MIC (Staphylococcus aureus [1]) | MIC (Staphylococcus aureus [2]) | MIC (Staphylococcus aureus [3]) | MIC (Staphylococcus aureus [4]) | SMILES
2 µg/mL (≈ 1.26 µM) | 4 µg/mL | 8 µg/mL | 4 µg/mL | CCCCCCCCCC(=O)N[C@@H](Cc1ccccc1)C(=O)N[C@@H](CC(N)=O)C(=O)N[C@@H](CC(=O)O)C(=O)N[C@@H]1C(=O)NCC(=O)N[C@@H](CCCN)C(=O)N[C@@H](CC(=O)O)C(=O)N[C@H](C)C(=O)N[C@@H](CC(=O)O)C(=O)NCC(=O)N[C@H](CO)C(=O)N[C@@H]([C@@H](C)CC(=O)O)C(=O)N[C@@H](CC(=O)c2ccccc2N)C(=O)O[C@@H]1C
4 µg/mL (≈ 2.52 µM) | 8 µg/mL | 16 µg/mL | 32 µg/mL | CCCCCCCCCC(=O)N[C@@H](Cc1ccsc1)C(=O)N[C@@H](CC(N)=O)C(=O)N[C@@H](CC(=O)O)C(=O)N[C@@H]1C(=O)NCC(=O)N[C@@H](CCCN)C(=O)N[C@@H](CC(=O)O)C(=O)N[C@H](C)C(=O)N[C@@H](CC(=O)O)C(=O)NCC(=O)N[C@H](CO)C(=O)N[C@@H]([C@@H](C)CC(=O)O)C(=O)N[C@@H](CC(=O)c2ccccc2N)C(=O)O[C@@H]1C
2 µg/mL (≈ 1.25 µM) | 8 µg/mL | 16 µg/mL | 8 µg/mL | CCCCCCCCCC(=O)N[C@@H](Cc1ccc(F)cc1)C(=O)N[C@@H](CC(N)=O)C(=O)N[C@@H](CC(=O)O)C(=O)N[C@@H]1C(=O)NCC(=O)N[C@@H](CCCN)C(=O)N[C@@H](CC(=O)O)C(=O)N[C@H](C)C(=O)N[C@@H](CC(=O)O)C(=O)NCC(=O)N[C@H](CO)C(=O)N[C@@H]([C@@H](C)CC(=O)O)C(=O)N[C@@H](CC(=O)c2ccccc2N)C(=O)O[C@@H]1C
> 32 µg/mL | > 32 µg/mL | > 32 µg/mL | > 32 µg/mL | CCCCCCCCCC(=O)N[C@@H](Cc1ccc(O)cc1)C(=O)N[C@@H](CC(N)=O)C(=O)N[C@@H](CC(=O)O)C(=O)N[C@@H]1C(=O)NCC(=O)N[C@@H](CCCN)C(=O)N[C@@H](CC(=O)O)C(=O)N[C@H](C)C(=O)N[C@@H](CC(=O)O)C(=O)NCC(=O)N[C@H](CO)C(=O)N[C@@H]([C@@H](C)CC(=O)O)C(=O)N[C@@H](CC(=O)c2ccccc2N)C(=O)O[C@@H]1C
4 µg/mL (≈ 2.5 µM) | 32 µg/mL | > 32 µg/mL | 32 µg/mL | CCCCCCCCCC(=O)N[C@@H](COc1ccccc1)C(=O)N[C@@H](CC(N)=O)C(=O)N[C@@H](CC(=O)O)C(=O)N[C@@H]1C(=O)NCC(=O)N[C@@H](CCCN)C(=O)N[C@@H](CC(=O)O)C(=O)N[C@H](C)C(=O)N[C@@H](CC(=O)O)C(=O)NCC(=O)N[C@H](CO)C(=O)N[C@@H]([C@@H](C)CC(=O)O)C(=O)N[C@@H](CC(=O)c2ccccc2N)C(=O)O[C@@H]1C
2 µg/mL (≈ 1.24 µM) | 2 µg/mL | 4 µg/mL | 4 µg/mL | CCCCCCCCCC(=O)N[C@@H](Cc1cccc(OC)c1)C(=O)N[C@@H](CC(N)=O)C(=O)N[C@@H](CC(=O)O)C(=O)N[C@@H]1C(=O)NCC(=O)N[C@@H](CCCN)C(=O)N[C@@H](CC(=O)O)C(=O)N[C@H](C)C(=O)N[C@@H](CC(=O)O)C(=O)NCC(=O)N[C@H](CO)C(=O)N[C@@H]([C@@H](C)CC(=O)O)C(=O)N[C@@H](CC(=O)c2ccccc2N)C(=O)O[C@@H]1C

The next lines start with the molecule.

SMILES | MIC (Staphylococcus aureus [1]) | MIC (Staphylococcus aureus [2]) | MIC (Staphylococcus aureus [3]) | MIC (Staphylococcus aureus [4])
CCCCCCCCCC(=O)N[C@@H](Cc1ccc(OC)cc1OC)C(=O)N[C@@H](CC(N)=O)C(=O)N[C@@H](CC(=O)O)C(=O)N[C@@H]1C(=O)NCC(=O)N[C@@H](CCCN)C(=O)N[C@@H](CC(=O)O)C(=O)N[C@H](C)C(=O)N[C@@H](CC(=O)O)C(=O)NCC(=O)N[C@H](CO)C(=O)N[C@@H]([C@@H](C)CC(=O)O)C(=O)N[C@@H](CC(=O)c2ccccc2N)C(=O)O[C@@H]1C | 8 µg/mL (≈ 4.87 µM) | 8 µg/mL | 8 µg/mL | 16 µg/mL
CCCCCCCCCC(=O)N[C@@H](Cc1ccc(N(C)C)cc1)C(=O)N[C@@H](CC(N)=O)C(=O)N[C@@H](CC(=O)O)C(=O)N[C@@H]1C(=O)NCC(=O)N[C@@H](CCCN)C(=O)N[C@@H](CC(=O)O)C(=O)N[C@H](C)C(=O)N[C@@H](CC(=O)O)C(=O)NCC(=O)N[C@H](CO)C(=O)N[C@@H]([C@@H](C)CC(=O)O)C(=O)N[C@@H](CC(=O)c2ccccc2N)C(=O)O[C@@H]1C | 2 µg/mL (≈ 1.23 µM) | 2 µg/mL | 2 µg/mL | 4 µg/mL
CCCCCCCCCC(=O)N[C@@H](Cc1ccc(OC)cc1)C(=O)N[C@@H](CC(N)=O)C(=O)N[C@@H](CC(=O)O)C(=O)N[C@@H]1C(=O)NCC(=O)N[C@@H](CCCN)C(=O)N[C@@H](CC(=O)O)C(=O)N[C@H](C)C(=O)N[C@@H](CC(=O)O)C(=O)NCC(=O)N[C@H](CO)C(=O)N[C@@H]([C@@H](C)CC(=O)O)C(=O)N[C@@H](CC(=O)c2ccccc2N)C(=O)O[C@@H]1C | 2 µg/mL (≈ 1.24 µM) | 2 µg/mL | 2 µg/mL | 8 µg/mL
CCCCCCCCCC(=O)N[C@@H](Cc1ccc(C(F)(F)F)cc1)C(=O)N[C@@H](CC(N)=O)C(=O)N[C@@H](CC(=O)O)C(=O)N[C@@H]1C(=O)NCC(=O)N[C@@H](CCCN)C(=O)N[C@@H](CC(=O)O)C(=O)N[C@H](C)C(=O)N[C@@H](CC(=O)O)C(=O)NCC(=O)N[C@H](CO)C(=O)N[C@@H]([C@@H](C)CC(=O)O)C(=O)N[C@@H](CC(=O)c2ccccc2N)C(=O)O[C@@H]1C | 2 µg/mL (≈ 1.21 µM) | 32 µg/mL | > 32 µg/mL | 8 µg/mL
CCCCCCCCCC(=O)N[C@@H](Cc1csc2ccccc12)C(=O)N[C@@H](CC(N)=O)C(=O)N[C@@H](CC(=O)O)C(=O)N[C@@H]1C(=O)NCC(=O)N[C@@H](CCCN)C(=O)N[C@@H](CC(=O)O)C(=O)N[C@H](C)C(=O)N[C@@H](CC(=O)O)C(=O)NCC(=O)N[C@H](CO)C(=O)N[C@@H]([C@@H](C)CC(=O)O)C(=O)N[C@@H](CC(=O)c2ccccc2N)C(=O)O[C@@H]1C | 2 µg/mL (≈ 1.22 µM) | 8 µg/mL | 16 µg/mL | 4 µg/mL
CCCCCCCCCC(=O)N[C@@H](CCc1ccc(OC)cc1)C(=O)N[C@@H](CC(N)=O)C(=O)N[C@@H](CC(=O)O)C(=O)N[C@@H]1C(=O)NCC(=O)N[C@@H](CCCN)C(=O)N[C@@H](CC(=O)O)C(=O)N[C@H](C)C(=O)N[C@@H](CC(=O)O)C(=O)NCC(=O)N[C@H](CO)C(=O)N[C@@H]([C@@H](C)CC(=O)O)C(=O)N[C@@H](CC(=O)c2ccccc2N)C(=O)O[C@@H]1C | 2 µg/mL (≈ 1.23 µM) | 8 µg/mL | 32 µg/mL | 8 µg/mL
CO/N=C(\C(=O)N[C@@H]1C(=O)N2C(C(=O)O)=C(CSc3nc(=O)c(O)nn3C)CS[C@H]12)c1csc(N)n1 [CEFTRIAXONE] | 2 µg/mL (≈ 3.61 µM) | 2 µg/mL | 2 µg/mL | 8 µg/mL
CCCCCCCCCC(=O)N[C@@H](Cc1ccc(C(=O)O)cc1)C(=O)N[C@@H](CC(N)=O)C(=O)N[C@@H](CC(=O)O)C(=O)N[C@@H]1C(=O)NCC(=O)N[C@@H](CCCN)C(=O)N[C@@H](CC(=O)O)C(=O)N[C@H](C)C(=O)N[C@@H](CC(=O)O)C(=O)NCC(=O)N[C@H](CO)C(=O)N[C@@H]([C@@H](C)CC(=O)O)C(=O)N[C@@H](CC(=O)c2ccccc2N)C(=O)O[C@@H]1C | > 32 µg/mL | > 32 µg/mL | > 32 µg/mL | > 32 µg/mL
CCCCCCCCCC(=O)N[C@@H](Cc1c[nH]c2ccc(OC)cc12)C(=O)N[C@@H](CC(N)=O)C(=O)N[C@@H](CC(=O)O)C(=O)N[C@@H]1C(=O)NCC(=O)N[C@@H](CCCN)C(=O)N[C@@H](CC(=O)O)C(=O)N[C@H](C)C(=O)N[C@@H](CC(=O)O)C(=O)NCC(=O)N[C@H](CO)C(=O)N[C@@H]([C@@H](C)CC(=O)O)C(=O)N[C@@H](CC(=O)c2ccccc2N)C(=O)O[C@@H]1C | 4 µg/mL (≈ 2.42 µM) | 16 µg/mL | 32 µg/mL | 8 µg/mL
